Experimental data reported in ChEMBL document CHEMBL5303573, “Mapping human microbiome drug metabolism by gut bacteria and their genes” (Nature, 2019).

How the values were obtained:
[1] = The drug is tested on Bifidobacterium breve strain: DSM20213 for biotransformation. The drug concentrations were measured before and after a 12-h incubation by liquid-chromatography-coupled mass spectrometry (LC–MS); details: 2 µM
[2] = The drug is tested on Bacteroides caccae strain: ATCC43185 for biotransformation. The drug concentrations were measured before and after a 12-h incubation by liquid-chromatography-coupled mass spectrometry (LC–MS); details: 2 µM
[3] = The drug is tested on Bacteroides uniformis strain: ATCC8492 for biotransformation. The drug concentrations were measured before and after a 12-h incubation by liquid-chromatography-coupled mass spectrometry (LC–MS); details: 2 µM
[4] = The drug is tested on Bacteroides vulgatus strain: ATCC8482 for biotransformation. The drug concentrations were measured before and after a 12-h incubation by liquid-chromatography-coupled mass spectrometry (LC–MS); details: phocaeicola vulgatus, 2 µM
[5] = The drug is tested on Bacteroides sp. WH2 strain: WH2 for biotransformation. The drug concentrations were measured before and after a 12-h incubation by liquid-chromatography-coupled mass spectrometry (LC–MS); details: bacteroides sp. wh2, 12 h, 2 µM
[6] = The drug is tested on Parabacteroides merdae strain: ATCC43184 for biotransformation. The drug concentrations were measured before and after a 12-h incubation by liquid-chromatography-coupled mass spectrometry (LC–MS); details: 2 µM
[7] = The drug is tested on Blautia luti strain: DSM14534 for biotransformation. The drug concentrations were measured before and after a 12-h incubation by liquid-chromatography-coupled mass spectrometry (LC–MS); type: ADME; design: dose 2 uM, timepoint 0 vs 12 hours; details: 2 µM
[8] = The drug is tested on Clostridium ramosum strain: DSM1402 for biotransformation. The drug concentrations were measured before and after a 12-h incubation by liquid-chromatography-coupled mass spectrometry (LC–MS); details: thomasclavelia ramosa, 2 µM
[9] = The drug is tested on Clostridium sporogenes strain: ATCC15579 for biotransformation. The drug concentrations were measured before and after a 12-h incubation by liquid-chromatography-coupled mass spectrometry (LC–MS); details: 2 µM
[10] = The drug is tested on Clostridium symbiosum strain: ATCC14940 for biotransformation. The drug concentrations were measured before and after a 12-h incubation by liquid-chromatography-coupled mass spectrometry (LC–MS); details: 2 µM
[11] = The drug is tested on Edwardsiella tarda strain: ATCC23685 for biotransformation. The drug concentrations were measured before and after a 12-h incubation by liquid-chromatography-coupled mass spectrometry (LC–MS); details: 2 µM
[12] = The drug is tested on Providencia rettgeri strain: DSM1131 for biotransformation. The drug concentrations were measured before and after a 12-h incubation by liquid-chromatography-coupled mass spectrometry (LC–MS); type: ADME; design: dose 2 uM, timepoint 0 vs 12 hours; details: 2 µM
[13] = bacteroides eggerthii, 12 h, 2 µM
Description: The drug is tested on Bacteroides eggerthii strain: DSM20697 for biotransformation. The drug concentrations were measured before and after a 12-h incubation by liquid-chromatography-coupled mass spectrometry (LC–MS)

[14] = bacteroides fragilis, 12 h, 2 µM
Description: The drug is tested on Bacteroides fragilis strain: NCTC 9343 for biotransformation. The drug concentrations were measured before and after a 12-h incubation by liquid-chromatography-coupled mass spectrometry (LC–MS)

[15] = bacteroides fragilis, 12 h, 2 µM; remark: listed apart in the source
Description: The drug is tested on Bacteroides fragilis strain: DS-208 for biotransformation. The drug concentrations were measured before and after a 12-h incubation by liquid-chromatography-coupled mass spectrometry (LC–MS)

[16] = bacteroides stercoris, 12 h, 2 µM
Description: The drug is tested on Bacteroides stercoris strain: ATCC43183 for biotransformation. The drug concentrations were measured before and after a 12-h incubation by liquid-chromatography-coupled mass spectrometry (LC–MS)

[17] = parabacteroides johnsonii, 12 h, 2 µM
Description: The drug is tested on Parabacteroides johnsonii strain: DSM18315 for biotransformation. The drug concentrations were measured before and after a 12-h incubation by liquid-chromatography-coupled mass spectrometry (LC–MS)

[18] = akkermansia muciniphila, 12 h, 2 µM
Description: The drug is tested on Akkermansia muciniphila strain: ATCC BAA-835 for biotransformation. The drug concentrations were measured before and after a 12-h incubation by liquid-chromatography-coupled mass spectrometry (LC–MS)

[19] = limosilactobacillus reuteri cf48-3a, 12 h, 2 µM
Description: The drug is tested on Lactobacillus reuteri CF48-3A strain: BEI HM-102 for biotransformation. The drug concentrations were measured before and after a 12-h incubation by liquid-chromatography-coupled mass spectrometry (LC–MS)

[20] = The drug is tested on Bifidobacterium ruminantium strain: fecal isolate for biotransformation. The drug concentrations were measured before and after a 12-h incubation by liquid-chromatography-coupled mass spectrometry (LC–MS); details: 2 µM

Measured: Bacterial Biotransformation

CC1OC(OC2C(O)CC(OC3C(O)CC(OC4CCC5(C)C(CCC6C5CCC5(C)C(C7=CC(=O)OC7)CCC65O)C4)OC3C)OC2C)CC(O)C1O (stereo unspecified)
Compound metabolized: [3] | [4] | [6] | [9] | [13] | [15] | [16] | [17]
not listed: [19] | [20]
Compound NOT metabolized: all other assays above

C[C@H]1O[C@@H](O[C@H]2[C@@H](O)C[C@H](O[C@H]3[C@@H](O)C[C@H](O[C@H]4CC[C@@]5(C)[C@H](CC[C@@H]6[C@@H]5C[C@@H](O)[C@]5(C)[C@@H](C7=CC(=O)OC7)CC[C@]65O)C4)O[C@@H]3C)O[C@@H]2C)C[C@H](O)[C@@H]1O [DIGOXIN]
Compound metabolized: [3] | [4] | [6] | [13] | [15] | [16] | [17]
not listed: [20]
Compound NOT metabolized: all other assays above

CNCC[C@H](Oc1cccc2ccccc12)c1cccs1 [DULOXETINE]
Compound NOT metabolized: [1] | [2] | [7] | [8] | [10] | [13] | [15] | [19]
not listed: [4] | [5] | [9] | [11]
Compound metabolized: all other assays above

CC(CCc1ccccc1)NCC(O)c1ccc(O)c(C(N)=O)c1 (stereo unspecified) [LABETALOL]
not listed: [20]
Compound NOT metabolized: all other assays above

Nc1nnc(-c2cccc(Cl)c2Cl)c(N)n1 [LAMOTRIGINE]
not listed: [4] | [6] | [9] | [14] | [17]
Compound NOT metabolized: all other assays above

CC(=O)O[C@]1(C(C)=O)CC[C@H]2[C@@H]3C=C(C)C4=CC(=O)CC[C@]4(C)[C@H]3CC[C@@]21C [MEGESTROL ACETATE]
Compound NOT metabolized: [1] | [8] | [10] | [11] | [19]
not listed: [2] | [5] | [7] | [9] | [12] | [18]
Compound metabolized: all other assays above

Cc1ccccc1N1C(=O)c2cc(S(N)(=O)=O)c(Cl)cc2NC1C (stereo unspecified) [METOLAZONE]
not listed: [6] | [9] | [12]
Compound NOT metabolized: all other assays above

COc1ccccc1N1CCN(CC(O)COc2cccc3ccccc23)CC1 (stereo unspecified) [NAFTOPIDIL]
not listed: [20]
Compound NOT metabolized: all other assays above

C#C[C@]1(OC(C)=O)CC[C@H]2[C@@H]3CCC4=C/C(=N/O)CC[C@@H]4[C@H]3CC[C@@]21CC [NORGESTIMATE]
Compound metabolized: [3] | [17]
not listed: [4] | [9] | [10] | [16] | [18] | [19]
Compound NOT metabolized: all other assays above
